Measured values published in patent US11331364B2, “Use for JNK inhibitor molecules for treatment of various diseases” (Xigen Inflammation Ltd., priority 2014, dated 2022).
Square brackets hold non-standard residues; d marks the D form. Peptide text beside a SMILES is read from it.

What was measured:
[1] = Stability (half-life) in human serum, UPLC-MS; conditions: human serum (10 and 50% in PBS; FIG. 5: 50%), 0.1 mM peptide
Description: The experiment was performed as described by Tugyi et al. (Proc Natl Acad Sci USA, 2005, 413-418). The remaining intact peptide was quantified by UPLC-MS.

[2] = test system: experimental renal ischemia/reperfusion in rats; experiment: Renal ischemia/reperfusion (clamping both renal pedicles 40 min), Wistar rats; format: in vivo, rat; conditions: 2 mg/kg IV one hour after clamping; 24 h following ischemia
Description: Renal ischemia will be induced by clamping both renal pedicles with atraumatic clamp (induction of necropathy). One unique dose of the JNK inhibitor of SEQ ID NO: 172 (2000 μg/kg) will be administered intravenously (IV) into the tail vein on Day 0, one hour after clamping period (after reperfusion) both renal pedicles with atraumatic clamp. The administration volume will be 2 ml/kg. Heparin (5000 IU/kg) will be administered intraperitoneally 1 hour before clamping.
Each day, the general behavior and the appearance of all animals is observed. […] For the evaluation of the renal function, serum creatinine ([…]) or urea concentrations (mmol/mL) are measured with the appropriate kits (Bayer Healthcare AG, Leverkusen, Germany). […]
Twenty-six (26) male Wistar rats (age 5-6 weeks) were used in this study (divided into 2 groups of 10 rats and 1 group of 6 rats). […] The health of the animals was monitored (moribund animals, abnormal important loss of weight, major intolerance of the substance, etc. . . . ). […]
For evaluation of renal function, blood was collected from the tail vein at 24 hours after reperfusion. Serum creatinine ([…]) and urea concentrations (mmol/mL) were measured using appropriate kits (Bayer Healthcare AG, Leverkusen, Germany). […]

JNK [3] = experiment: JNK and c-Jun activation after Aβ42 stress in WT primary cortical neurons (immunoblot); format: cell-based, mouse
Description: To this end, primary mouse cortical neuron cultures were exposed to either 2 μM or 25 μM of β-amyloid 1-42 (Aβ42) for 5 hours to induce Aβ42 cell stress. Neurons were pre-treated with or without 10 μM of the specific inhibitor of JNK, XG-104 (SEQ ID No. 172). Levels of phosphorylated JNK (pJNK), total JNK (JNK), cleaved PARP and Tubulin (control) were determined. The ratio of pJNK/JNK served as a measure of JNK activity. The level of cleaved protein PARP, which is known to increase during apoptosis, served as a measure of neuronal apoptosis.
(§1) To obtain primary cortical neuronal cultures, E15.5 mice embryos were dissected in PBS (Phosphate Buffered Saline) 6% glucose, on ice. Embryos cortices were minced into small pieces and treated with PBS glucose trypsin (Sigma Aldrich, Saint-Louis, USA) for 20 min at 37° C. Dissociated cortical cells were cultured in Neurobasal media complemented with B27, Glutamax and penicillin-streptomycin (Gibco). Neurons were cultured at 37° C., 5% CO2 on pre-coated with poly-L-lysin (Sigma Aldrich) petri dishes. Neurons were cultured to maturity (7 days) before use.
To induce […] stress 2 μM of Aβ1-42 (Thermo Fisher Scientific, Mass., USA) were used during 5 h on cortical neurons. Aβ42-1 inversed peptide (Thermo Fisher Scientific) was used as negative control. AP 1-42 and Aβ42-1 were dissolved in pure water and incubated at 37° C. for 48 h before use. […]
(§2) For immunoblot analysis cells were lysed on ice in a lysis buffer containing […] NaPi pH 7.8, […] NaCl, 1% Triton, 0.5% DOC, 0.1% SDS, 10% glycerol, 0.1 μM calyculin A, 1 mM Na3VO4 and 1× of a protease inhibitor cocktail (Sigma Aldrich). Lysates were sonicated and centrifugated 10 min at 15000 g at 4° C. The supernatant protein concentration was determined with the Micro BCA protein assay kit (Thermo Scientific). Thirty micrograms of proteins were resolved on SDS-PAGE and transferred onto nitrocellulose membrane. After blocking with TBS 5% skim milk, the membranes were probed with primary antibodies to JNK full, c-Jun, PKR, eIF2α (Santa Cruz, Danvers, USA), pJNK (Millipore, Billerica, USA), phosphor eIF2a (Thermo Fisher Scientific), PARP and tubulin (Cell Signaling, Danvers, USA). IR Dyes 800 and 700 (Rockland Immunochemical Inc, Gilbertsville, USA) antibodies were used as secondary antibodies. Blots were reveled with Odyssey imaging system (LI-COR Biosciences, Lincoln, USA).

JNK [4] = experiment: JNK and c-Jun activation after Aβ42 stress in PKR−/− primary cortical neurons; format: cell-based, mouse; conditions: 10 μM, 2 μM Aβ42
Description: as §1
To induce […] stress 2 μM of Aβ1-42 (Thermo Fisher Scientific, Mass., USA) were used during 5 h on cortical neurons. Aβ42-1 inversed peptide (Thermo Fisher Scientific) was used as negative control. AP 1-42 and Aβ42-1 were dissolved in pure water and incubated at 37° C. for 48 h before use.
To inhibit JNK, cortical neurons were pre-treated with 10 μM of XG-104 1 h before cell-stress treatment.
as §2

[5] = WT neurons, 10 μM, 1 h before 2 μM Aβ42, vs stressed WT neurons without peptides

In the case of `CC(C)C[C@H](NC(=O)[C@H](CC(N)=O)NC(=O)[C@H](CC(C)C)NC(=O)[C@@H](NC(=O)[C@@H](C)NC(=O)[C@@H]1CCCN1C(=O)[C@H](CCCNC(=N)N)NC(=O)[C@@H](CCCCN)NC(=O)[C@@H]1CCCN1C(=O)[C@H](CCCNC(=N)N)NC(=O)[C@@H](CCCNC(=N)N)NC(=O)[C@H](CCCNC(=N)N)NC(=O)[C@H](CCCNC(=N)N)NC(=O)[C@H](CCC(N)=O)NC(=O)[C@@H](CCCNC(=N)N)NC(=O)[C@H](CCCNC(=N)N)NC(=O)[C@H](CCCCN)NC(=O)[C@H](CCCCN)NC(=O)[C@H](N)CCCNC(=N)N)[C@@H](C)O)C(=O)N[C@H](Cc1ccccc1)C(N)=O` [SEQ ID NO: 172, rKKRrQRRrRPkRPaTLNLf] (H-[dR]KKR[dR]QRR[dR]RP[dK]RP[dA]TLNL[dF]-NH2; N-terminus assumed), the “time until completely degraded” value [1] is reported as 14 days, the “serum creatinine relative to untreated ischemic rats” value [2] is reported as “lower serum creatinine” and the “urea relative to untreated ischemic rats” value [2] is reported as “lower urea”. The “decrease of JNK activity (pJNK/JNK)” value (JNK [3]; 2 μM Aβ42 5 hours, 5 μM pre-treatment) was 29.2%, the “decrease of JNK activity (pJNK/JNK)” value (JNK [3]; 2 μM Aβ42 5 hours, 10 μM pre-treatment) was 60% and the “decrease of JNK activity (pJNK/JNK)” value (JNK [3]; 25 μM Aβ42 5 hours, 5 μM pre-treatment) was 17.5%. The “decrease of JNK activity (pJNK/JNK)” value (JNK [3]; 25 μM Aβ42 5 hours, 10 μM pre-treatment) was 59.6%, the JNK activation (JNK [3]; WT neurons, 10 μM, 1 h before 2 μM Aβ42) was −60% and the c-Jun expression (JNK [3]; [5]) was −62%. The c-Jun phosphorylation (JNK [3]; [5]) was −29%, the c-Jun activation (JNK [4]; PKR−/− cultures) was “does not modify c-Jun activation” and the “decrease of c-Jun protein expression” value (JNK [4]; PKR−/− cultures) was 62%. The JNK activation (JNK [4]; PKR−/− neurons) was −60%.
